Where a name gives a salt, the structure may show the parent alone. Read-outs that look alike come from different tables or passages of the source.
Tests used:
mice [1] = test: Toxicity in mice via the i.p. route (LD0, LD100); type: in vivo
Source text: The LD0 and LD100 values in mice via the i.p. route are also given in this table.

[2] = target: T1, site of dopamine reuptake (Rattus norvegicus, UniProt P23977); test: Inhibition of binding at the site of dopamine reuptake in vitro in rat striatum ([3H]mazindol); design: species or system rat (male, CD Sprague-Dawley); conditions: pH 7.7, mean of three tests
T1 construct: The striata are removed immediately and then stored at -80° C. until used; from tissue; host or cells: rat striatum membranes (male CD Sprague-Dawley)
T1 sequence (P23977 whole entry): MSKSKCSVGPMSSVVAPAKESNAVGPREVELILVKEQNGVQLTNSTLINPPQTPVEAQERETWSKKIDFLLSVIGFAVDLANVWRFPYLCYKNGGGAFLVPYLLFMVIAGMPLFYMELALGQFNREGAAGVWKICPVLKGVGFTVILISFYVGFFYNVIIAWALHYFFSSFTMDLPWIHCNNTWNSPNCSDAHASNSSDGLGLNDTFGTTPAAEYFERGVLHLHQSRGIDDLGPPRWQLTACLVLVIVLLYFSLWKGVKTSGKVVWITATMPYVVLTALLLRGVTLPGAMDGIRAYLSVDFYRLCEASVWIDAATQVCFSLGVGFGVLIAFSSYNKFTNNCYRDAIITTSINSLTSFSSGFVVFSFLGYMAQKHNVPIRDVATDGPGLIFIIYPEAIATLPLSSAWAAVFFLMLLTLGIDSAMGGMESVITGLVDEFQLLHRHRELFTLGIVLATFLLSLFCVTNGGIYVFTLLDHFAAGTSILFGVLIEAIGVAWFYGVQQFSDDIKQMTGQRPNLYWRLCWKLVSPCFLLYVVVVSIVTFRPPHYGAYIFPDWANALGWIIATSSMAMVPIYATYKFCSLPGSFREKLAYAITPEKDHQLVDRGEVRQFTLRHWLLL
Protocol: Inhibition Of Binding At the Site of Dopamine Reuptake In Vitro In Rat Striatum
Rats, (male, CD Sprague-Dawley, 200-250 g) are sacrificed by decapitation. The striata are removed immediately and then stored at -80° C. until used. On the day of the manipulation, the striata are thawed, coated with buffer and then brought into suspension. This suspension is then poured into the centrifuge tubes, made up to 10 ml with pH 7.7 buffer (50 mM Tris (HCl), 120 mM NaCl, 5 mM KCl) and thereafter centrifuged at 20,000 rpm for 15 minutes. The pellet is resuspended in 10 ml of buffer and is then subjected to a second centrifugation (20,000 rpm for 15 minutes). The above procedure is repeated, so that the homogenate undergoes a third centrifugation identical to the previous two. The pellet thereby obtained is suspended in a few ml of buffer and then homogenized. The membrane suspension is then diluted in a requisite volume. Increasing concentrations of the test compounds dissolved in the buffer are distributed. Aliquots of the membrane suspension are then added. The radioactive ligand ([^3 H]mazindol), used as a label of the type of site studied, is then distributed manually in the tubes, which are thereafter incubated (final volume 1 ml).
The reaction is stopped by filtration through a Harvester system (Whatman GF/B filter strip). The filter strip is then washed three times with 5 ml of buffer before being placed in an automatic cutting system.
The cut filters fall into counting vials, and 4 ml of scintillation fluid are distributed automatically by the system. Each sample is subjected to counting of the radioactivity using a liquid scintillation counter.
Three series of tests (test 1, test 2 and test 3) are carried out with each compound for determination of the IC50, each determination being carried out on two different samples.
The specific binding is defined as the difference between the total binding and the non-specific binding (displace by an excess of non-radioactive ligand). The values obtained in counts per minute (cpm) are then converted into disintegrations per minute (dpm) in accordance with the efficiency of the counter.
The IC50 is defined as the concentration of the substance under study needed to displace 50% of the specifically bound radioactive label.
The experimental data emanating from the liquid scintillation counter (Kontron) are stored on diskette, managed by a program (Convert) and then analysed by means of Ligand* software, which calculates the 50% inhibitory concentration (IC50) and the inhibition constant Ki [formula]
where [L] represents the concentration of the radioactive ligand and Kd the dissociation constant of this same ligand. (The values of the IC50 and of Ki are inversely proportional to the affinity of the product under study for the binding site.

rats = test: Induction of stereotyped movements in rats; type: in vivo, rat (male, CD, Sprague-Dawley); conditions: i.p.
Protocol: Induction of Stereotyped Movements in Rats
Groups of 6 rats (male, CD, Sprague-Dawley, Charles River, 160-200 g) receive CRL 41 789 or CRL 41 790 intraperitoneally in distilled water (5 ml/kg), and are immediately place in Flexiglas cages (20×10×10cm). The stereotyped movements are scored from 0 to 3 every 10 minutes until they have disappeared.

[3] = Solubility of the product; type: physicochemical
[4] = tested on: anaesthetized rat striatum; test: Extracellular levels of neuro-mediators and metabolites in anaesthetized rat striatum (intracerebral microdialysis); type: in vivo, rat (male, Sprague-Dawley CD); conditions: doses of 16, 32 or 64 mg/kg i.p.; for 3-methoxytyramine (3MT) concentration in the dialysate / dopamine concentration in the dialysate: hydrochloride
Protocol: Effect On The Extracellular Levels Of Neuro-Mediators And Metabolites In Anaesthetized Rat Striatum (Intracerebral Microdialysis)
This determination is obtained by high performance liquid chromatography coupled with and electro-chemical detection.
HPLC: Spherisorb cartridge, ODS-2 (5 μm), L=[…], =4 mm, Merck. Mobile phase: 0.1 M potassium phosphate, 0.1 M citric acid, octane-sulphonic acid 50 mg/l, 0.1 mM EDTA, 4% methanol, ph 4.80 , pump output 0.9 ml/min
electrochemical detection: BAS detector, LC-4C, +750 mV
analyser: Millenium, Waters
Rats (male, Sprague-Dawley CD, Charles River, 280-300 g) anaesthetized with chloral hydrate (400 mg/kg, i.p.) are placed in a stereotactic apparatus. The micro-dialysis probe (CMA/11 L=3 mm, =0.24 mm, Carnegie) is implanted according to the coordinates of the Paxinos and Watson atlas in the anterior portion of the left striatum: I=10, L=2.4, H=-6.1.
Ringer's fluid (CaCl2 =2.4 mM, KCl=4 mM, NaCl=147 mM) is perfused at 2 μl/min into the probe. The dialysates collected every 20 minutes are cooled (to approximately 6° C.) and then analysed.
After one hour of collection, groups of 6 rats receive intraperitoneally in a volume of 5 ml/kg:
either an injection of isotonic sodium chloride solution,
or the test compound dissolved in distilled water at doses of 16, 32 or 64 mg/kg.
In the dialysate, the dopamine (DA), 3,4-dihydroxyphenylacetic acid (DOPAC), homovanillic acid (HVA) and 3-methoxytyramine (3MT) concentrations are measured by electrochemical detection and quantified with respect to a standard series, and are corrected in accordance with the efficiency of the probe determined in vitro before each test.
Only tests in which the probes display an efficiency of more than 5% are taken into account.

mice [5] = test: Locomotor activity of mice; type: in vivo, mice (male, NMRI); conditions: recorded over 30 minutes
Protocol: Effects on the Locomotor Activity of Mice
Half an hour after receiving CRL 41 789 or CRL 41 790 intraperitoneally in distilled water, groups of 6 to 24 mice (male, NMRI, C.R.E. Janvier, 18-22 g) are placed individually in crossed-beam activity cages, where their locomotor activity (number of rays crossed) is recorded over 30 minutes.

mice [6] = test: Test of "behavioural despair" in mice; type: in vivo, mice (male, CD1)
Source text: Effects on the Test of "Behavioural Despair"in Mice
Half an hour after receiving CRL 41 789 or CRL 41 790 intraperitoneally in distilled water, groups of 6 or 12 mice (male, CD1, Charles River, 18-22 g) are placed individually in a high vessel made of transparent glass, filled with water to a height of 6 cm. The total period of immobility between the beginning of the 3rd minute and the end of the 6th minute following immersion of the animal is noted.

[7] = Inhibition of binding at the site of dopamine reuptake IC50, rat striatum
[8] = Inhibition of binding at the site of dopamine reuptake Ki, rat striatum
[9] = rat striatum, read-out: Inhibition of binding at the site of dopamine reuptake IC50
[10] = rat striatum, read-out: Inhibition of binding at the site of dopamine reuptake Ki

Compound	LD0 (mice [1]) [mg/kg]	LD100 (mice [1]) [mg/kg]	IC50 [2, 7] [nM]	Ki [2, 8] [nM]	LD0 (mice [1]; hydrochloride) [mg/kg]	LD100 (mice [1]; hydrochloride) [mg/kg]	solubility in ethanol [3]	solubility in ether [3]	solubility in ethyl acetate [3]	solubility in water [3]	IC50 [2, 9] [nM]	Ki [2, 10] [nM]	3-methoxytyramine (3MT) concentration in the dialysate [4]	dopamine concentration in the dialysate [4]	solubility in methanol [3]	other results
CC(C)(C)NCC(SCC(N)=O)c1ccc(Cl)c(Cl)c1 (racemic) [CRL 41 414, [α-(tert-butylaminomethyl)-3,4-dichlorobenzyl]thioacetamide]	128	256	31	63	–	–	–	–	–	–	–	–	–	–	–	–
CC(C)(C)NCC(SCC(N)=O)c1ccc(Cl)c(Cl)c1 (single isomer, unassigned) [CRL 41 789, 1(-)-[α-(tert-butylaminomethyl)-3,4-dichlorobenzyl]thioacetamide hydrochloride]	–	–	–	–	64	256	soluble	insoluble	insoluble	soluble	44	24	significant increase	significant increase	–	stereotyped movements (rats; 16 and 32 mg/kg): appearance of intense and lasting stereotyped movements; DOPAC concentration in the dialysate [4]: without modification; HVA concentration in the dialysate [4]: without modification; locomotor activity (mice [5]; i.p., 2, 8 and 32 mg/kg): marked and statistically significant increase in the locomotor activity of the mice is observed, the increase rising with the dose; period of immobility (mice [6]; i.p., 0.5, 2, 8 and 32 mg/kg): a decrease in the period of immobility is observed, the decrease rising with the dose; period of immobility, significance of the effect (mice [6]; i.p., 8 and 32 mg/kg): marked and statistically significant
CC(C)(C)NCC(SCC(N)=O)c1ccc(Cl)c(Cl)c1 (single isomer, unassigned) [CRL 41 790, d(+)-[α-(tert-butylaminomethyl)-3,4-dichlorobenzyl]thioacetamide hydrochloride]	–	–	–	–	128	512	soluble	insoluble	insoluble	soluble	1100	620	does not cause any modification	does not cause any modification	soluble	stereotyped movements (rats; even at the high dose of 128 mg/kg): does not cause the appearance of any stereotyped movement; locomotor activity (mice [5]; i.p., even at 64 mg/kg): does not give rise to any increase in the locomotor activity; period of immobility (mice [6]; i.p., even at the high dose of 64 mg/kg): does not give rise to any decrease in the period of immobility
CCC(C)(C)NCC(SCC(N)=O)c1ccc(Cl)c(Cl)c1 (stereo not drawn) [CRL 42 059, [α-(tert-amylaminomethyl)-3,4-dichlorobenzyl]thioacetamide hydrochloride]	30	256	74	46	–	–	–	insoluble	insoluble	soluble	–	–	–	–	–	solubility in alcohols ([3]; alcohols): soluble
NC(=O)CSC(CNC12CC3CC(CC(C3)C1)C2)c1ccc(Cl)c(Cl)c1 (stereo not drawn) [CRL 42 060, [α-(1-adamantylaminomethyl)-3,4-dichlorobenzyl]thioacetamide hemifumarate]	128	1024	40	44	–	–	–	insoluble	insoluble	insoluble	–	–	–	–	soluble	solubility in DMSO ([3]; DMSO): soluble

Reference: patent publication US6268397A, “Use of (α-aminomethyl-3,4-dichlorobenzyl) thioacetamide derivatives for inhibiting dopamine reuptake and new compounds for this use” (Laboratoire. L. Lafon, priority 1995, dated 2001)
